Experimental data from patent US8377894B2, “Drug and food or drink for improving pancreatic functions” (Morinaga Milk Industry Co., Ltd., priority 2005, dated 2013).
Where two headings read alike, the source gives them in different places.

Assays:
db/db mice [1] = conditions: for Pancreatic function protecting effect: 0.1 μg/animal; for Pancreatic function protecting effect / Serum insulin level relative to that observed in the negative test: 43rd day of continuous administration; for Serum insulin level relative to that observed in the negative test: 1 μg/animal; for Serum insulin levels on 43rd day of administration: male db/db mice, ELISA
Experimental: This test was performed in order to evaluate the pancreatic endocrine gland cell function (insulin production ability) protecting action of a compound having the cyclolanostane skeleton by using db/db mice known as a model animal of pancreatic hypofunction or pancreatic tissue dysfunction.
In this test, 6-week old male db/db mice (purchased from Clea Japan, Inc.) were used. These mice were divided into groups, each consisting of 7 animals. Each test sample was dissolved in DMSO, and the concentration was adjusted to 0.1 or 1 μg/mL with physiological saline. The final DMSO concentration was adjusted to 0.2%. The pancreatic disorder model mice were orally administered with 1 mL of the test sample once a day everyday for 42 days with a sonde. The serum insulin level was measured on the 43rd day of the continuous administration by using Lbis insulin mouse ELISA kit (Shibayagi Co., Ltd).

db/db mice [2] = assay: Pancreatic tissue protecting action: number and maximum area of Langerhans islets in pancreatic sections of db/db mice, Test Example 2; assay type: in vivo; conditions: for Maximum area of Langerhans islets relative to that observed in the negative test / Number of Langerhans islets relative to negative sample-administered mice: 1 μg, 43rd day of continuous administration; for The numbers of Langerhans islets in sections on 43rd day of administration / Maximum area of Langerhans islets on administration: male db/db mice, 1 μg orally once a day for 42 days; for The numbers of Langerhans islets in sections on 43rd day of administration: hematoxylin-eosin stained pancreatic sections; for Maximum area of Langerhans islets on administration: pancreatic sections
Experimental: The final DMSO concentration was adjusted to 0.2%. […] On the 43rd day of the continuous administration, the pancreas was extracted, divided into three portions of upstream, midstream and downstream from the duodenum side, and fixed with a formalin solution, and then paraffin blocks were prepared in a conventional manner. Section slides were prepared from the paraffin blocks, and subjected to hematoxylin-eosin staining. The numbers of Langerhans islets existing on the sections of the 3 position of the pancreas, and area of Langerhans islet having the maximum area on each section were measured by using an ocular micrometer on a microscope (“ECLIPSE E600”, NIKON CORP.).

[3] = 0.1 μg/animal orally once a day for 42 days
[4] = 1 μg/animal orally once a day for 42 days

SMILES | Pancreatic function protecting effect (db/db mice [1]) | Serum insulin level relative to that observed in the negative test (db/db mice [1]) | Serum insulin levels on 43rd day of administration (db/db mice [1]; [3]) | Serum insulin levels on 43rd day of administration (db/db mice [1]; [4]) | Maximum area of Langerhans islets relative to that observed in the negative test (db/db mice [2]) | Number of Langerhans islets relative to negative sample-administered mice (db/db mice [2]) | The numbers of Langerhans islets in sections on 43rd day of administration (db/db mice [2]) | Maximum area of Langerhans islets on administration (db/db mice [2])
CC(C)CCCC(C)C1CCC2(C)C3CCC4C(C)(C)C(O)CCC45CC35CCC12C (stereo not shown) [Test sample 1, 9,19-cyclolanostan-3-ol] | any significant pancreatic function protecting effect was not observed | 160% | 1.74 ± 0.26 ng/mL | 3.19 ± 0.78 ng/mL | 1.8 times | 149% | 60.0 ± 14.8 piece | 78.6 ± 3.3 × 10^3 μm^2
C=C(CCC(C)C1CCC2(C)C3CCC4C(C)(C)C(O)CCC45CC35CCC12C)C(C)C (stereo not shown) [Test sample 2, 24-methylene-9,19-cyclolanostan-3-ol] | any significant pancreatic function protecting effect was not observed | 170% | 1.94 ± 0.56 ng/mL | 3.39 ± 1.35 ng/mL | 3.1 times | 148% | 59.6 ± 11.6 piece | 140.0 ± 102.8 × 10^3 μm^2
